Our source for the DC50 values is patent publication US20220281876A1, “DEGRADATION OF BRUTON'S TYROSINE KINASE (BTK) BY CONJUGATION OF BTK INHIBITORS WITH E3 LIGASE LIGAND AND METHODS OF USE” (BEIGENE, LTD., priority 2019, published 2022).

Some results are limits rather than exact numbers.

One may read the DC50 as the concentration giving 50% degradation. Low readings indicate degradation at low concentration, high ones degradation only at high concentration.

The target of the test is T1, BTK (Homo sapiens, UniProt Q06187).
T1 construct: endogenous in cells; host or cells: Ramos cells
T1 sequence (Q06187 whole entry): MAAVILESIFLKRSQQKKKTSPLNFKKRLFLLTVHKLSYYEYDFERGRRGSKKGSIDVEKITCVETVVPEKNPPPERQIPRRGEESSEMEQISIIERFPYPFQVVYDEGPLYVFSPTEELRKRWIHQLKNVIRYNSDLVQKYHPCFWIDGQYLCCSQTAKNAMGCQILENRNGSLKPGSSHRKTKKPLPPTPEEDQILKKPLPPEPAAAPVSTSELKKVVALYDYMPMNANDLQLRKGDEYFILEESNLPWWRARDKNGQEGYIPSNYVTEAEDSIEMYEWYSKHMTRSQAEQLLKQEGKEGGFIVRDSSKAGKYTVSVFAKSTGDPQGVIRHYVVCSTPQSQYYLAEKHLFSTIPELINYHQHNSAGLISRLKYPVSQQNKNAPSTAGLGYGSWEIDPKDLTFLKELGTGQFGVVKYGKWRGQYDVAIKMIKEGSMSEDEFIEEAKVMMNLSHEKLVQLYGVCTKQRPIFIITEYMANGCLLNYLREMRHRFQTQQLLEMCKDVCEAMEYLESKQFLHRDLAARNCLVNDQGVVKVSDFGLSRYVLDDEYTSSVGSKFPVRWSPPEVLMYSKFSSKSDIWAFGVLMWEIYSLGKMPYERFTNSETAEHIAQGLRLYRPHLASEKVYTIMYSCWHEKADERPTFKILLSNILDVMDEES
Put plainly: BTK cell degradation in Ramos cells (total BTK ELISA). In kind it is cell-based. The settings on record: 16 h incubation, FastScan total BTK ELISA. Here is the method:
Ramos cells are treated with compounds diluted in 0.1% DMSO, dilution is done according to the following protocol: (1) make 1000x stock solution in DMSO from 10 mM by 5-fold dilution, total 7 doses were included; (2) make 10x solution in cell culture medium by transferring 1 ul 1000x stock solution into 99 ul medium; (3) 11 ul of 10× solution is added to cells and incubate for 16 h.
Cells in 96 well plate are harvested by centrifugation (1200 rpm), and wash once with ice-cold PBS. Then, 100 ul 1×cell extraction buffer is added in each well. The cells are placed on a shaker for 20 min at 4° C.; 5 ul lysate is transferred to 45 ul of 1×cell extraction buffer in ELISA plate, and 50 ul of the antibody cocktail is added in each well; seal the plate and incubate 1 hour at room temperature on a plate shaker; medium is discarded from the plate, tap the plated on a paper towel, wash 3×200 ul ELISA wash buffer; add 100 ul of TMB to each well and incubate the plate in the dark for 15 min at room temperature on a shaker; add 100 ul of STOP solution to each well; read absorbance at 450 nm. The BTK ELISA assay was performed using FastScan total BTK ELISA kit (Cell Signaling Cat #36609).
A general note: An ELISA detects its analyte on a solid surface through an enzyme-linked reagent.
Regarding `NC(=O)c1c(-c2ccc(Oc3ccccc3)cc2)nn2c1NCCC2C1CCN(C(=O)CC2CCC(N3CCN(c4ccc5c(c4)C(=O)N(C4CCC(=O)NC4=O)C5=O)CC3)CC2)CC1` (stereo in doubt) [Example 147, (7R)-7-(1-(2-(4-(4-(2-(2,6-dioxopiperidin-3-yl)-1,3-dioxoisoindolin-5-yl)piperazin-1-yl)cyclohexyl)acetyl)piperidin-4-yl)-2-(4-phenoxyphenyl)-4,5,6,7-tetrahydropyrazolo[1,5-a]pyrimidine-3-carboxamide], the half-maximal degradation concentration (DC50) is 0.244 µM. In other words, the sub-micromolar range.

Take `NC(=O)c1c(-c2ccc(Oc3ccccc3)cc2)nn2c1NCC[C@H]2C1CCN(C(=O)c2cn(CCOCCCc3cccc4c3CN(C3CCC(=O)NC3=O)C4=O)nn2)CC1` (stereo partly drawn) [Example 1, (7S)-7-(1-(1-(2-(3-(2-(2,6-dioxopiperidin-3-yl)-1-oxoisoindolin-4-yl)propoxy)ethyl)-1H-1,2,3-triazole-4-carbonyl)piperidin-4-yl)-2-(4-phenoxyphenyl)-4,5,6,7-tetrahydropyrazolo[1,5-a]pyrimidine-3-carboxamide]: the half-maximal degradation concentration (DC50) was greater than 10 µM. Regarding `NC(=O)c1c(-c2ccc(Oc3ccccc3)cc2)nn2c1NCC[C@H]2C1CCN(C(=O)c2cn(CCOCCNc3cccc4c3C(=O)N(C3CCC(=O)NC3=O)C4=O)nn2)CC1` (stereo partly drawn) [Example 2, (7S)-7-(1-(1-(2-(2-((2-(2,6-dioxopiperidin-3-yl)-1,3-dioxoisoindolin-4-yl)amino)ethoxy)ethyl)-1H-1,2,3-triazole-4-carbonyl)piperidin-4-yl)-2-(4-phenoxyphenyl)-4,5,6,7-tetrahydropyrazolo[1,5-a]pyrimidine-3-carboxamide], the DC50 was greater than 10 µM. The same measure for `NC(=O)c1c(-c2ccc(Oc3ccccc3)cc2)nn2c1NCC[C@H]2C1CCN(C(=O)c2cn(CCOCCOCCNc3cccc4c3C(=O)N(C3CCC(=O)NC3=O)C4=O)nn2)CC1` (stereo partly drawn) [Example 3, (7S)-7-(1-(1-(2-(2-(2-((2-(2,6-dioxopiperidin-3-yl)-1,3-dioxoisoindolin-4-yl)amino)ethoxy)ethoxy)ethyl)-1H-1,2,3-triazole-4-carbonyl)piperidin-4-yl)-2-(4-phenoxyphenyl)-4,5,6,7-tetrahydropyrazolo[1,5-a]pyrimidine-3-carboxamide]: greater than 10 µM; for `NC(=O)c1c(-c2ccc(Oc3ccccc3)cc2)nn2c1NCC[C@H]2C1CCN(C(=O)c2cn(CCOCCOCC#Cc3cccc4c3CN(C3CCC(=O)NC3=O)C4=O)nn2)CC1` (stereo partly drawn) [Example 4, (7S)-7-(1-(1-(2-(2-((3-(2-(2,6-dioxopiperidin-3-yl)-1-oxoisoindolin-4-yl)prop-2-yn-1-yl)oxy)ethoxy)ethyl)-1H-1,2,3-triazole-4-carbonyl)piperidin-4-yl)-2-(4-phenoxyphenyl)-4,5,6,7-tetrahydropyrazolo[1,5-a]pyrimidine-3-carboxamide]: greater than 10 µM. The compound `NC(=O)c1c(-c2ccc(Oc3ccccc3)cc2)nn2c1NCC[C@H]2C1CCN(C(=O)c2cn(CCOCCOCCCc3cccc4c3CN(C3CCC(=O)NC3=O)C4=O)nn2)CC1` (stereo partly drawn) [Example 5, (7S)-7-(1-(1-(2-(2-(3-(2-(2,6-dioxopiperidin-3-yl)-1-oxoisoindolin-4-yl)propoxy)ethoxy)ethyl)-1H-1,2,3-triazole-4-carbonyl)piperidin-4-yl)-2-(4-phenoxyphenyl)-4,5,6,7-tetrahydropyrazolo[1,5-a]pyrimidine-3-carboxamide] had a half-maximal degradation concentration (DC50) greater than 10 µM. `NC(=O)c1c(-c2ccc(Oc3ccccc3)cc2)nn2c1NCC[C@H]2C1CCN(C(=O)c2cn(CCOCCOCCOCCCc3cccc4c3CN(C3CCC(=O)NC3=O)C4=O)nn2)CC1` (stereo partly drawn) [Example 6, (7S)-7-(1-(1-(2-(2-(2-(3-(2-(2,6-dioxopiperidin-3-yl)-1-oxoisoindolin-4-yl)propoxy)ethoxy)ethoxy)ethyl)-1H-1,2,3-triazole-4-carbonyl)piperidin-4-yl)-2-(4-phenoxyphenyl)-4,5,6,7-tetrahydropyrazolo[1,5-a]pyrimidine-3-carboxamide] yielded a DC50 of 0.242 µM.
